Measured values from patent publication US9181193B2, “Indenoquinolone compound, preparation method and use thereof” (Second Military Medical University, PLA, priority 2010, dated 2015).

Columns and labels:
[1] = tested on: Colo205 (human colon cancer cells); experiment: MTT in vitro anti-tumor activity test, Colo205; type: cell-based
[2] = tested on: MDA-MB-435 (human breast cancer cells); experiment: MTT in vitro anti-tumor activity test, MDA-MB-435; type: cell-based
[3] = tested on: HepG2 (human hepatoma cells); experiment: MTT in vitro anti-tumor activity test, HepG2; type: cell-based
[4] = tested on: A549 (human lung cancer cells); experiment: MTT in vitro anti-tumor activity test, A549; type: cell-based
[5] = tested on: human lung cancer cell line A549; experiment: Anti-tumor activity test in vivo, nude mouse model of A549; conditions: nude mouse model of A549, dose of 1-200 mg/kg weight
From the text: The activities of some compounds in vivo in the nude mouse model of human lung cancer cell line A549 were detected by using literature methods (WEI Hong. Medical Experiments Zoology. 2nd edition. Chengdu: Sichuan Science and Technology Press, 2001: 595-596).

[6] = Colo205 human colon cancer cells, MTT, 72 h
[7] = MDA-MB-435, 100 μg/mL, MTT, 72 h
[8] = MDA-MB-435 human breast cancer cells, MTT, 72 h
[9] = HepG2 human hepatoma cells, MTT, 72 h
[10] = A549 human lung cancer cells, MTT, 72 h
[11] = MTT assay, 72 h incubation, Colo205 cells
[12] = inhibition at 100 μg/mL, MTT assay, 72 h, Colo205 cells
[13] = MTT assay, 72 h incubation, MDA-MB-435 cells
[14] = inhibition at 100 μg/mL, MTT assay, 72 h, MDA-MB-435 cells
[15] = MTT assay, 72 h incubation, HepG2 cells
[16] = inhibition at 100 μg/mL, MTT assay, 72 h, HepG2 cells
[17] = MTT assay, 72 h incubation, A549 cells
[18] = inhibition at 100 μg/mL, MTT assay, 72 h, A549 cells

| SMILES | Colo205 100 μg/mL IC % ([1]; Colo205, 100 μg/mL, MTT, 72 h) [%] | Colo205 IC50 [1, 6] [µg/mL] | MDA-MB-435 100 μg/mL IC % [2, 7] [%] | MDA-MB-435 IC50 [2, 8] [µg/mL] | HepG2 100 μg/mL IC % ([3]; HepG2, 100 μg/mL, MTT, 72 h) [%] | HepG2 IC50 [3, 9] [µg/mL] | A549 100 μg/mL IC % ([4]; A549, 100 μg/mL, MTT, 72 h) [%] | A549 IC50 [4, 10] [µg/mL] | anti-tumor activity in vivo [5] | Colo205 IC50 [1, 11] [µg/mL] | Colo205 100 μg/mL IC % [1, 12] [%] | MDA-MB-435 IC50 [2, 13] [µg/mL] | MDA-MB-435 100 μg/mL IC % [2, 14] [%] | HepG2 IC50 [3, 15] | HepG2 100 μg/mL IC % [3, 16] [%] | A549 IC50 [4, 17] [µg/mL] | A549 100 μg/mL IC % [4, 18] [%] |
| --- | --- | --- | --- | --- | --- | --- | --- | --- | --- | --- | --- | --- | --- | --- | --- | --- | --- |
| CCN(CC)CCOc1nc2ccc(OC)cc2c2c1-c1ccc(OC)cc1C2=O [Compound 14] | 97.47 | 0.580 | 99.95 | 1.29 | 100 | 0.552 | 100 | 6.11 | good anti-tumor activity in vivo | – | – | – | – | – | – | – | – |
| COc1ccc2c(c1)C(=O)c1c-2c(OCCCN(C)C)nc2ccccc12 [Compound 6] | 100 | 0.719 | 100 | 3.64 | 98.33 | 2.17 | 100 | 1.14 | good anti-tumor activity in vivo | – | – | – | – | – | – | – | – |
| COc1ccc2c(c1)C(=O)c1c-2c(=O)n(CCCN(C)C)c2cc(OC)c(OC)cc12 [Compound 46] | – | – | – | – | – | – | – | – | good anti-tumor activity in vivo | 22.18 | 87.44 | 0.267 | 85.86 | 12.02 µg/mL | 90.77 | 12.52 | 68.78 |
| COc1cc2c3c(c(=O)n(CCN4CCOCC4)c2cc1OC)-c1ccc(Cl)cc1C3=O [Compound 49] | – | – | – | – | – | – | – | – | – | 69.03 | 50.06 | >100 | 48.01 | 21.05 µg/mL | 59.34 | >100 | 28.48 |
| CN(C)CCCOc1nc2ccccc2c2c1-c1ccc(Cl)cc1C2=O [Compound 12] | 100 | 1.16 | 100 | 0.585 | 100 | 3.19 | 88.18 | 3.04 | – | – | – | – | – | – | – | – | – |
| CN(C)CCn1c(=O)c2c(c3ccccc31)C(=O)c1cc(Cl)ccc1-2 [Compound 35] | – | – | – | – | – | – | – | – | – | 3.89 | 100 | 3.88 | 100 | 20.09 µg/mL | 100 | 19.04 | 72.15 |
| COc1ccc2c(c1)C(=O)c1c-2c(OCCN(C)C)nc2cc(OC)c(OC)cc12 [Compound 20] | 93.79 | 0.606 | 99.28 | 0.99 | 99.17 | 1.28 | 100 | 13.78 | good anti-tumor activity in vivo | – | – | – | – | – | – | – | – |
| COc1ccc2c(c1)C(=O)c1c-2c(=O)n(CCN2CCCC2)c2cc(OC)c(OC)cc12 [Compound 44] | – | – | – | – | – | – | – | – | – | 0.346 | 92.66 | 0.014 | 78.20 | 1.93 µg/mL | 84.59 | 1.42 | 94.74 |
| COc1cc2c3c(c(=O)n(CCN(C)C)c2cc1OC)-c1ccc(Cl)cc1C3=O [Compound 47] | – | – | – | – | – | – | – | – | – | 1.66 | 88.74 | 5.30 | 100 | 8.33 µg/mL | 64.50 | 10.60 | 87.20 |
| COc1ccc2c(c1)C(=O)c1c-2c(OCCN2CCCC2)nc2cc(OC)c(OC)cc12 [Compound 22] | 93.84 | 1.30 | 100 | 1.85 | 81.69 | 8.61 | 97.05 | 1.43 | – | – | – | – | – | – | – | – | – |
| COc1ccc2c(c1)C(=O)c1c-2c(=O)n(CCCN(C)C)c2ccccc12 [Compound 34] | – | – | – | – | – | – | – | – | – | 6.82 | 99.54 | 19.78 | 100 | ≈100 μg/mL | 49.68 | 6.58 | 100 |
| COc1cc2c3c(c(=O)n(CCCN(C)C)c2cc1OC)-c1ccc(Cl)cc1C3=O [Compound 50] | – | – | – | – | – | – | – | – | – | 15.89 | 76.93 | 1.12 | 89.80 | 3.71 µg/mL | 36.98 | 3.59 | 85.91 |
| COc1cc2c3c(c(=O)n(CCn4ccnc4)c2cc1OC)-c1ccc(Cl)cc1C3=O [Compound 48] | – | – | – | – | – | – | – | – | – | 11.75 | 89.59 | 12.36 | 100 | 60.46 µg/mL | 62.67 | 23.76 | 79.61 |
| COc1ccc2c(c1)C(=O)c1c-2c(OCCN2CCOCC2)nc2ccccc12 [Compound 5] | 43.88 | >100 | 19.75 | >100 | 13.97 | >100 | 48.72 | >100 | – | – | – | – | – | – | – | – | – |
